“Also recorded” adds a separate entry of the source. Read-outs that look alike come from different tables or passages of the source. Non-standard residues stand in square brackets, D forms with d. Residues, ends and D or L forms follow the SMILES beside them. *: point of attachment. Tle = CC(C)(C)[C@H](N)C(=O)O; X1 = C[C@@H](CCCCCN)C(=O)*
Legend:
[1] = test system: rats; assay: Catalepsy, horizontal bar test
Description: Cataleptic Analysis. […] To circumvent these potential confounding factors, tests are performed on an animal only once in a quiet, controlled environment.
Catalepsy Assessment. […] Rats were given an IP injection of peptide (5 mg/Kg), saline, or haloperidol (1 mg/kg). After 3 hours, catalepsy was measured using the horizontal bar test. Briefly, the front paws were placed directly on a horizontal bar 5 mm in diameter placed 7.5 cm above the cage floor. The rat was held in this position for 3 sec and then released. The time from release until the paws return to the cage floor was measured and recorded. A cut-off time of 30 sec was observed; this indicated a fully cataleptic animal as cataleptic animals are frozen to the bar. […] Measures were repeated every 30 min for 4 hr. Data are means±SEM (p<0.01).

[2] = test system: L5178Y TK+/−mouse lymphoma cells; conditions: initial data, with and without S9
[3] = test system: rats
Source text: Chronic Testing Protocols. […] Induced hypothermia was monitored and tested for significance as described above. […] The test protocol for day five was as described above.

[4] = Brain distribution of ABS201 (LC/MS/MS)
Source text: (§1) At selected time points, blood was removed or brain harvested and the concentration of the peptide analog determined using LC/MS/MS.
(§2) These samples were then used for the determination of plasma and brain drug levels by LC/MS/MS for estimating BBB penetration and pharmacokinetic parameters.

[5] = Pharmacokinetics of ABS201 in blood/plasma (LC/MS/MS)
Source text: as §1, §2

[6] = target: T1, NTR-2 (Homo sapiens, UniProt O95665); assay: Competitive NTR binding versus radiolabeled NT[8-13]
T1 sequence (O95665 whole entry, species assumed): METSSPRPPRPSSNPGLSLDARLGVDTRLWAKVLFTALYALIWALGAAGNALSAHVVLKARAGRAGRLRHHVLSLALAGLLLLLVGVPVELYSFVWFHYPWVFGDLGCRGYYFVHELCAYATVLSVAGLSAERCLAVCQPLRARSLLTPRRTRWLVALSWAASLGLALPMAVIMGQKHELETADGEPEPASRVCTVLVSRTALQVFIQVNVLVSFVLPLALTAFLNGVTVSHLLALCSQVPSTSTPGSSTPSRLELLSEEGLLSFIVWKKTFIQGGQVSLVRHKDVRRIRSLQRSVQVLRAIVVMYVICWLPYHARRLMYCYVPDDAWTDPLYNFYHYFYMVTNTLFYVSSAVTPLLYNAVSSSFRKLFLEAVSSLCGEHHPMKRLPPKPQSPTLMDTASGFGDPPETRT

[7] = Plasma stability, quantitative MALDI-MS assay; format: in vitro ADME
[8] = intra-stomach
Description: These samples were used for the determination of plasma drug by LC/MS/MS for estimating pharmacokinetic parameters and segmental absorption. The bioavailability of intra-stomach, intra-duodenum, intra-jejunum, intra-colon administration relative to intravenous administration and gavage was calculated.

[9] = test system: Brattleboro rats; conditions: orally dosed
[10] = target: hERG (human ether-a-go-go related gene) channels (Homo sapiens, UniProt Q12809); conditions: initial results
Sequence of hERG (human ether-a-go-go related gene) channels (Q12809 whole entry): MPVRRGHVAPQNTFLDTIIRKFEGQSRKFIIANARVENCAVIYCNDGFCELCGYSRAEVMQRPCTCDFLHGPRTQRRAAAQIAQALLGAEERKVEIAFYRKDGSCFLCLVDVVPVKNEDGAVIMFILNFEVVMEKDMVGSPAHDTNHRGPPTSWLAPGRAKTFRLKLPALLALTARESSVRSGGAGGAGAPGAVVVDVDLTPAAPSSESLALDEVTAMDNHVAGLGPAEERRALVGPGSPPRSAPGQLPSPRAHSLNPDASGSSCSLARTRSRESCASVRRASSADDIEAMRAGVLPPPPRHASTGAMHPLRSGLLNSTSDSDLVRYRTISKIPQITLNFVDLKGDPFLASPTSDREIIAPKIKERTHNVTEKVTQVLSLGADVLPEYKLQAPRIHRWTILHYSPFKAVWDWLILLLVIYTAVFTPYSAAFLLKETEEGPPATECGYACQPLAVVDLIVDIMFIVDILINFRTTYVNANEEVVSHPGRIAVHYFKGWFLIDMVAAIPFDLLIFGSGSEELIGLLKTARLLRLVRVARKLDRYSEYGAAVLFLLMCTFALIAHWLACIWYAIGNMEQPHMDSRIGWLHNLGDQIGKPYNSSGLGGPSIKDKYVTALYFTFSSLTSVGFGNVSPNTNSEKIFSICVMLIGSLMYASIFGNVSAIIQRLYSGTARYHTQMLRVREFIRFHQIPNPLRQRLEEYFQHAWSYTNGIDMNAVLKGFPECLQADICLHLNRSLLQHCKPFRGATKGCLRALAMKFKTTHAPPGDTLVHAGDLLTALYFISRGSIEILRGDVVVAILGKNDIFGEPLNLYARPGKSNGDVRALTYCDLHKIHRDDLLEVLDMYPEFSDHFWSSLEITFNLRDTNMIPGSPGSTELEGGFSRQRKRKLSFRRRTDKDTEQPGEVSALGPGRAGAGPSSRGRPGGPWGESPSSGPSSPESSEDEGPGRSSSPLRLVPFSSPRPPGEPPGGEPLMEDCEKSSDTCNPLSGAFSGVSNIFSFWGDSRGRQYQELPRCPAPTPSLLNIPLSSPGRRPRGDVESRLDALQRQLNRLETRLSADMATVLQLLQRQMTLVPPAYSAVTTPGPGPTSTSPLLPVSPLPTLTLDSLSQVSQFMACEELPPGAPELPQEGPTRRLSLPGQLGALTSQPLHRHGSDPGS
Description: hERG Assay. The objective of the hERG study is to assess the effects of the test article on the rapidly activating inward rectifying potassium current (IKr) conducted by hERG (human ether-a-go-go related gene) channels stably expressed in a HEK293 cell line. The method used is as follows. HEK293 cells, stably transfected with hERG cDNA, were used in the study. All experiments were performed at near-physiological temperature (35±2° C.). A positive control (60 nM terfenadine) was applied to two cells (n 2). Cells were be transferred to the recording chamber and superfused with HB-PS solution. The recording chamber and bathing solution were maintained at a temperature of 35±2° C. using a combination of in-line solution pre-heater, chamber floor heater, and feedback temperature controller. Bath temperature were measured using a thermistor probe.
Patch pipettes were made from glass capillary tubing using a P-97 micropipette puller (Sutter Instruments, CA). A commercial patch clamp amplifier was used for whole cell recordings. Before digitization, current records were low-pass filtered at one-fifth of the sampling frequency.
Cells stably expressing hERG were held at −80 mV.

[11] = target: NTR-1 (Homo sapiens, UniProt P30989); assay: Functional agonism: induction of cAMP and inositol phosphate production; format: cell-based
Sequence of NTR-1 (P30989 whole entry, species assumed): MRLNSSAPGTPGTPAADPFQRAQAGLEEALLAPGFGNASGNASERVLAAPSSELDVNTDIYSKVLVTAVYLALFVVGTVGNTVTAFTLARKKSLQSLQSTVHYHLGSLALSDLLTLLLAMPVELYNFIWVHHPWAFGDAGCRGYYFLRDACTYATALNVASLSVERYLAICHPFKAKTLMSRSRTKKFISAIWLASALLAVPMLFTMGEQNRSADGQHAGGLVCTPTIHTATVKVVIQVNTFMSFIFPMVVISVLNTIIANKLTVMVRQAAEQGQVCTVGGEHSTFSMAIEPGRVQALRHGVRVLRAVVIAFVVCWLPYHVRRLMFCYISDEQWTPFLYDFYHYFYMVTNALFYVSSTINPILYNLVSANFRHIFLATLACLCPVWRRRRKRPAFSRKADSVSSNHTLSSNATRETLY

[12] = test system: rats; assay: Maximum tolerated dose; conditions: rat, in vivo
[13] = test system: adrenergic (alpha1, alpha 2, beta), dopamine, histamine (H1, H2, H3), muscarinic (central, peripheral), nicotinic, opioid (nonselective), orphanin, serotonin …; conditions: 10^−9, 10^−7 10^−5 M
[14] = 5 or 30 min incubation at 37° C.
[15] = test system: mouse bone marrow cells; assay: Micronucleus study; format: in vivo; conditions: initial data
Description: Genetic Toxicology. […] Experimental protocols are as follows.
In the micronucleus study, 90 CD-1 mice used in the study consisted of 10/sex/group in Groups 1-4 (control, low-, mid-, and high-dose) and 5/sex in the positive control group. Test peptide as administered orally, the positive control, Cyclophosphamide at 80 mg/kg, as administered orally. Approximately 24 and 48 hours after dosing, mice were killed and bone marrow obtained from both femurs. A slide of a bone marrow suspension was prepared, stained with Wright-Giemsa stain, dried, and scored blind. The number of polychromatic erythrocytes (PCE) among the total erythrocytes (PCE+normochromatic erythrocytes (NCE)) were determined for each animal by counting at least 200 erythrocytes. The number of micronucleated polychromatic erythrocytes (MPCE) then were scored for 2000 PCE per animal. A positive result was obtained, if there is a positive dose-response trend or statistically significant increase in the number of MPCE at one or more dose levels compared to controls.

[16] = test system: rats; assay: Hotplate assay; format: in vivo, rat
Source text: Animals. Experimentally naïve male Sprague-Dawley rats from Charles River Laboratories, Raleigh, N.C. (230-260 g) or Harlan, Prattville Ala. (240-280 g), were maintained 4 per cage in animal quarters on a regular light/dark cycle (lights on 0600-1800) with ad libitum food and water for approximately 1 week before the experiment. The range of body weights on the 2 days of testing was 230-260 grams. The experiment was done on one day, with animals allowed to recover for three days before experiments are repeated.
Peptide Preparation. Test articles are prepared at the desired concentration in saline for either IP injection or gavage administration with N=6 for each dose and vehicle. Morphine (5 mg/kg) is used as a control for certain protocols. […] Apomorphine HCl (Sigma-Aldrich, St. Louis, Mo.) was dissolved in distilled water at a concentration of 5 mg/mL within 40 minutes of administration for injection at 1 mL/kg S.C. to give a dose of 5 mg/kg. When complete ED50s are determined, dosing range of the peptide will be 10, 3, 1, 0.3, 0.1 of the estimated ED50, covering two log orders of range.
The Hotplate Assay. The hotplate assay, a standard rat model for […] pain (see Le Bars et al., Pharmacol. Rev. 53: 597-652 (2001) and Chapman et al., Pain 22:1-31 (2002)), was performed as follows. A hotplate maintained at 52° C. to 53° C. was enclosed on four sides in a plexiglass chamber that extended 6 in. above the plate. Animals were placed on the plate, and the latency between the time a rat was placed on the surface and when it lifts or licks a back paw (indicative of pain sensation) was determined. Animals are removed immediately at the cutoff latency of 30 seconds. Assays are scored as the percent of maximal possible effect (% MPE) defined as 100%, which corresponds to the rats remaining on the hotplate for 30 seconds without responding. Thus, % MPE are calculated using the following equation: % MPE=[(post-drug latency−pre-drug latency)/(cut-off pre-drug latency)]×100%. N=6 or greater for all experiments.
Tmax indicates the time after dosing in which a maximum response was observed.

[17] = in vivo; conditions: rat
[18] = target: T1, NTR-2; assay: Functional agonism: induction of cAMP and inositol phosphate production; format: cell-based

## CC(C)C[C@H](NC(=O)[C@@H](NC(=O)[C@H](Cc1ccc(O)cc1)NC(=O)[C@@H]1CCCN1C(=O)[C@H](CCCNC(=N)N)NC(=O)[C@@H](C)CCCCCN)C(C)(C)C)C(=O)O [ABS201, hLys-Arg-Pro-Tyr-t-Leu-Leu] (X1-RPY[Tle]L-OH)
[1]; IP 5 mg/kg, 5 mg/kg
  catalepsy: does not induce catalepsy; also recorded: does not induce a cataleptic state
[1]; Table 11
  catalepsy: No
[2]
  mouse lymphoma study result: inactive
[3]; 10x ED50 administered daily over 5 days
  dose tolerance: No
[3]; I.P. 5 days at 5× the ED50, hypothermia and amphetamine-induced locomotion
  dose tolerance: not observed
[3]; summary of behavioral effects
  antinociception: not antinociceptive
Single acute dose I.P.
  Toxicity, dose without toxicity: (>100 x ED50)
Single acute dose at 100x ED50 I.P.
  Toxicity: No
[4]; IV 1 mg/kg and PO 30 mg/kg
  levels in brain: below the LLOD at all times
[4]; IV 5 mg/kg
  levels in brain: below the LLOD at all times
[4]; oral 50 mg/kg, 15 minutes post administration
  levels in brain: detected in brains of 2 of 3 animals
[5]; IV 1 mg/kg
  time by which plasma levels decreased below the LLOD: ≤ 45 min
[5]; IV 5 mg/kg
  clearance as % of rat hepatic blood flow: 74.02%
  time measurable in whole blood: up to 120 minutes
[5]; IV 5 mg/kg and oral 50 mg/kg
  time detectable in the blood and brain: up to 120 minutes
[5]; oral 30 mg/kg
  plasma levels: below the LLOD at all times
[5]; oral 50 mg/kg
  levels in whole blood: below the LLOD at all times
[5]; rat, in vivo, iv, 5 mg/kg
  Vd: 0.87 ± 0.27 L/kg
  clearance: 40.8 mL/min/kg
[6]
  NTR-2 affinity: sub-micromolar
[7]
  half-life: > 167 h
[8]
  uptake in the stomach: Virtually no ABS201 is taken up in the stomach
[9]
  reversal of PPI deficit: reverses PPI
[10]
  hERG study result: inactive
[11]
  Functional NTR-1 Agonist: Yes
[12]
  lower limit for the MTD: ≥ 100 times the ED50
[13]
  displacement of the receptors' endogenous substrate: No displacement
[14]
  binding to plasma proteins: little or no binding
[15]
  micronucleus study result: inactive
[16]; ABS201 5 mg/kg, Morphine 5 mg/kg
  analgesic activity (% MPE) compared with morphine: comparable in extent and duration to morphine
[16]; dosed daily for five days
  tolerance to the analgesic activity: do not become tolerant
[16]; hotplate, IP at 10 mg/kg
  MPE (I.P.): 100%
  Tmax (I.P.) of % MPE: 15-45
[16]; hotplate, orally at 20 mg/kg
  MPE (oral): 39%
  Tmax (Oral) of % MPE: 30
[17]; iv
  MTD at 48 hr: ≥ 100 mg/kg
[17]; po
  MTD at 48 hr: ≥ 500 mg/kg
[18]
  Functional NTR-2 Agonist: Yes

From patent US20100130432A1, “Non-Natural Amino Acids and Neurotensin Analogues Thereof” (priority 2005, published 2010)
